Columns and labels:
[1] = Second-order rate constant of the reaction with glutathione, fluorescent HPLC; conditions: 1 eq. glutathione (0.5 mM), 50 mM ABC buffer, 1 mM EDTA, pH 8.5
Experimental: The second-order rate constant of the reaction between glutathione and EDANS-phosphinates CS265 and CS266 was determined according to the following procedure: The EDANS-phosphinate was reacted with 1 eq. of glutathione (0.5 mM) in the presence of 50 mM ABC buffer (ammonium bicarbonate buffer) and 1 mM EDTA at pH 8.5. The reactions were performed in a volume of 0.1 ml. The first sample (t=0) was drawn before the addition of glutathione. Samples were taken after 1, 2, 5, 12, 22 and 35 min (CS266) or after 30, 60, 120, 240 and 1440 min (CS265). Samples were drawn in a volume of 10 μl and immediately diluted into 200 μl of 50 mM NaOAc buffer at pH 3.5, to stop the reaction. Those samples were subjected to fluorescent HPLC analyses, injecting 50 μl each.

eGFP C70M S147C [2] = target: T1, eGFP C70M S147C (Aequorea victoria, UniProt P42212, C70M/F64L/H231L/S147C/S65T); assay: Tandem-mass spectrometry of tryptically digested labelled eGFP; conditions: 10 eq. phosphinate, PBS pH 7.4, 10% DMSO
T1 construct: protease cleavage site highlighted with subscripts; His-tag (N); protease cleavage site (N); made in house
Experimental: At first phosphinate-1 was reacted with an eGFP mutant containing a single addressable Cys (eGFP C70M S147C). Using 10 eq. phosphinate in PBS pH 7.4 containing 10% DMSO as a co-solvent, the reaction reached completion after 30 minutes (FIG. 5d).
1 in PBS (30 min, r.t.) followed by purification via 0.5 mL Zeba™ Spin Desalting Columns with 7K MWCO (Thermo Fisher Scientific, USA) into phosphate-buffer (20 mM, pH 7.5). Complete labeling was verified via intact-protein MS.

eGFP C70M S147C [3] = target: T1, eGFP C70M S147C; assay: Second-order rate constant of the reaction with eGFP, intact protein-MS; conditions: one equivalent GFP, Tris-buffer (pH 8.3), 90 μM, room-temperature
Experimental: Subsequently, this new compound-class was compared with other Cys-reactive electrophiles in terms of reaction kinetics. The estimation of reaction-kinetics is particularly challenging for bis-reactive reagents because the second thiol addition interferes with the analysis. […] Consequently, 2 was reacted with one equivalent GFP in Tris-buffer (pH 8.3) at a concentration of 90 μM at room-temperature.
Determination of the second-order rate constant of the reaction between eGFP (C70M S147C) and phosphinate 2. […] Reactions were carried out in triplicate. 90 μl eGFP (0.1 mM) were mixed with 10 μl of a 0.9 mM solution of phosphinate 2 in DMSO. Samples were drawn after 60, 90, 150, 210 and 300 minutes and analyzed via intact protein-MS. […] Calculated by the intensity of the deconvoluted mass in relation to the internal standard eGFP (C70M). […] The slope corresponds to the second order rate constant. Shown are mean and error of three independent measurements.

T1 sequence (P42212 with tags, fused parts or gaps F64L/S65T/C70M/S147C/H231L): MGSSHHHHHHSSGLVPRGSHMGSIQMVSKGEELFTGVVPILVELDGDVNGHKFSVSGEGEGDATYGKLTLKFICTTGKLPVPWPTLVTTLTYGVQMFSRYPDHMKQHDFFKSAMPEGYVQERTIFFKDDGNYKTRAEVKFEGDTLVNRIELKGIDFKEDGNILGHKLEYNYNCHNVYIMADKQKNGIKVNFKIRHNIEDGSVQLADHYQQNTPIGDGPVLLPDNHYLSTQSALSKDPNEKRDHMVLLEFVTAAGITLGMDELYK

SMILES: C#CP(=O)(OCC)c1cn(CCC(=O)NCCNc2cccc3c(S(=O)(=O)O)cccc23)nn1 (stereo not drawn) [CS266, EDANS-1,2,3-triazol-ethyl-ethynylphosphinate]
- reaction kinetics relative to CS265 [1]: roughly ten times faster than with CS265

SMILES: C#CP(=O)(C#C)OCC [compound 1, ethyl diethynyl phosphinate]
- amino acids modified (MS/MS) (eGFP C70M S147C [2]): no amino acid other than Cys was modified

SMILES: C#CCCOP(=O)(C#C)C#C [compound 2, but-3-yn-1-yl-diethynylphosphinate]
- second-order rate constant (eGFP C70M S147C [3]): ~0.47 M⁻¹ s⁻¹

From patent US20240350655A1, “THIOL-CONJUGATION WITH UNSATURATED PHOSPHORUS(V) COMPOUNDS” (FORSCHUNGSVERBUND BERLIN E.V., priority 2021, published 2024)
